System: MV4-11 cells
Assay: Cell proliferation assay MV4;11 (CellTiter-Glo, 72 hours)
Assay type: cell-based
Details: Homo sapiens; MV4;11 leukemia cell line, 72 hours; read-out: MV4; 11 IC50
Outline: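 MV4-11 cells (MLL1-AF4 fusion) exposed 72 h at 37 °C to 8 compound concentrations, final 0.632–2000 nM. Viability by CellTiter-Glo luminescence as % of vehicle RLU; % max inhibition = 100 − viability at top concentration.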

Row | Compound | IC50 [nM]
1 | CCN(C(=O)c1cc(F)ccc1Oc1cncnc1N1CC2(CCN(C[C@@H]3CC[C@@H](NS(=O)(=O)NC4CC4)CO3)CC2)C1)C(C)C [Example 142, 2-((4-(7-(((2S,5R)-5-((N-Cyclopropylsulfamoyl)amino)tetrahydro-2H-pyran-2-yl)methyl)-2,7-diazaspiro[3.5]nonan-2-yl)pyrimidin-5-yl)oxy)-N-ethyl-5-fluoro-N-isopropylbenzamide] | < 100
2 | CNS(=O)(=O)N[C@@H]1CC[C@@H](CN2CCC3(CC2)CN(c2ncncc2Oc2ccc(F)cc2C(=O)N(C(C)C)C(C)C)C3)OC1 [Example 143, 5-Fluoro-N,N-diisopropyl-2-((4-(7-(((2S,5R)-5-((N-methylsulfamoyl)amino)tetrahydro-2H-pyran-2-yl)methyl)-2,7-diazaspiro[3.5]nonan-2-yl)pyrimidin-5-yl)oxy)benzamide] | < 100
3 | CCNS(=O)(=O)N[C@@H]1CC[C@@H](CN2CCC3(CC2)CN(c2ncncc2Oc2ccc(F)cc2C(=O)N(C(C)C)C(C)C)C3)OC1 [Example 144, 2-((4-(7-(((2S,5R)-5-((N-Ethylsulfamoyl)amino)tetrahydro-2H-pyran-2-yl)methyl)-2,7-diazaspiro[3.5]nonan-2-yl)pyrimidin-5-yl)oxy)-5-fluoro-N,N-diisopropylbenzamide] | < 100
4 | CCNS(=O)(=O)N[C@@H]1CC[C@@H](CN2CCC3(CC2)CN(c2ncncc2Oc2ccc(F)cc2C(=O)N(C(C)C)C2CC2)C3)OC1 [Example 145, N-Cyclopropyl-2-((4-(7-(((2S,5R)-5-((N-ethylsulfamoyl)amino)tetrahydro-2H-pyran-2-yl)methyl)-2,7-diazaspiro[3.5]nonan-2-yl)pyrimidin-5-yl)oxy)-5-fluoro-N-isopropylbenzamide] | < 100
5 | CCNS(=O)(=O)N[C@@H]1CC[C@@H](CN2CCC3(CC2)CN(c2ncncc2Oc2ccc(F)cc2C(=O)N(CC(F)F)C(C)C)C3)OC1 [Example 147, N-(2,2-Difluoroethyl)-2-((4-(7-(((2S,5R)-5-((N-ethylsulfamoyl)amino)tetrahydro-2H-pyran-2-yl)methyl)-2,7-diazaspiro[3.5]nonan-2-yl)pyrimidin-5-yl)oxy)-5-fluoro-N-isopropylbenzamide] | < 100
6 | CC(C)N(CC(F)F)C(=O)c1cc(F)ccc1Oc1cncnc1N1CC2(CCN(C[C@@H]3CC[C@@H](NS(=O)(=O)NCC4CC4)CO3)CC2)C1 [Example 148, 2-((4-(7-(((2S,5R)-5-((N-(Cyclopropylmethyl)sulfamoyl)amino)tetrahydro-2H-pyran-2-yl)methyl)-2,7-diazaspiro[3.5]nonan-2-yl)pyrimidin-5-yl)oxy)-N-(2,2-difluoroethyl)-5-fluoro-N-isopropylbenzamide] | < 100
7 | CC(C)N(CC(F)F)C(=O)c1cc(F)ccc1Oc1cncnc1N1CC2(CCN(C[C@@H]3CC[C@@H](NS(=O)(=O)NC4CC4)CO3)CC2)C1 [Example 149, 2-((4-(7-(((2S,5R)-5-((N-Cyclopropylsulfamoyl)amino)tetrahydro-2H-pyran-2-yl)methyl)-2,7-diazaspiro[3.5]nonan-2-yl)pyrimidin-5-yl)oxy)-N-(2,2-difluoroethyl)-5-fluoro-N-isopropylbenzamide] | < 100
8 | CC(C)NS(=O)(=O)N[C@@H]1CC[C@@H](CN2CCC3(CC2)CN(c2ncncc2Oc2ccc(F)cc2C(=O)N(CC(F)F)C(C)C)C3)OC1 [Example 150, N-(2,2-Difluoroethyl)-5-fluoro-N-isopropyl-2-((4-(7-(((2S,5R)-5-((N-isopropylsulfamoyl)amino)tetrahydro-2H-pyran-2-yl)methyl)-2,7-diazaspiro[3.5]nonan-2-yl)pyrimidin-5-yl)oxy)benzamide] | < 100
9 | CCCNS(=O)(=O)N[C@@H]1CC[C@@H](CN2CCC3(CC2)CN(c2ncncc2Oc2ccc(F)cc2C(=O)N(CC(F)F)C(C)C)C3)OC1 [Example 151, N-(2,2-Difluoroethyl)-5-fluoro-N-isopropyl-2-((4-(7-(((2S,5R)-5-((N-propylsulfamoyl)amino)tetrahydro-2H-pyran-2-yl)methyl)-2,7-diazaspiro[3.5]nonan-2-yl)pyrimidin-5-yl)oxy)benzamide] | < 100
10 | CCS(=O)(=O)N[C@@H]1CC[C@@H](CN2CCC3(CC2)CN(c2ncncc2Oc2ccc(F)cc2C(=O)N(CC(F)(F)F)C(C)C)C3)OC1 [Example 152, 2-((4-(7-(((2S,5R)-5-(Ethylsulfonamido)tetrahydro-2H-pyran-2-yl)methyl)-2,7-diazaspiro[3.5]nonan-2-yl)pyrimidin-5-yl)oxy)-5-fluoro-N-isopropyl-N-(2,2,2-trifluoroethyl)benzamide] | < 100
11 | CCNS(=O)(=O)N[C@@H]1CC[C@@H](CN2CCC3(CC2)CN(c2ncncc2Oc2ccc(F)cc2C(=O)N(CC(F)(F)F)C(C)C)C3)OC1 [Example 153, 2-((4-(7-(((2S,5R)-5-((N-Ethylsulfamoyl)amino)tetrahydro-2H-pyran-2-yl)methyl)-2,7-diazaspiro[3.5]nonan-2-yl)pyrimidin-5-yl)oxy)-5-fluoro-N-isopropyl-N-(2,2,2-trifluoroethyl)benzamide] | < 100
12 | CNS(=O)(=O)N[C@@H]1CC[C@@H](CN2CCC3(CC2)CN(c2ncncc2Oc2ccc(F)cc2C(=O)N(C(C)C)C2CC(F)(F)C2)C3)OC1 [Example 154, N-(3,3-Difluorocyclobutyl)-5-fluoro-N-isopropyl-2-((4-(7-(((2S,5R)-5-((N-methylsulfamoyl)amino)tetrahydro-2H-pyran-2-yl)methyl)-2,7-diazaspiro[3.5]nonan-2-yl)pyrimidin-5-yl)oxy)benzamide] | < 100
13 | CCNS(=O)(=O)N[C@@H]1CC[C@@H](CN2CCC3(CC2)CN(c2ncncc2Oc2ccc(F)cc2C(=O)N(C(C)C)C2CC(F)(F)C2)C3)OC1 [Example 155, N-(3,3-Difluorocyclobutyl)-2-((4-(7-(((2S,5R)-5-((N-ethylsulfamoyl)amino)tetrahydro-2H-pyran-2-yl)methyl)-2,7-diazaspiro[3.5]nonan-2-yl)pyrimidin-5-yl)oxy)-5-fluoro-N-isopropylbenzamide] | < 100
14 | C[C@@H]1COC[C@@H](C)N1C(=O)c1cc(F)ccc1Oc1cncnc1N1CC2(CCN(C[C@@H]3CC[C@@H](NS(=O)(=O)NCC(F)(F)F)CO3)CC2)C1 [Example 157, {[(3R,6S)-6-{[2-(5-{2-[(3R,5R)-3,5-Dimethylmorpholine-4-carbonyl]-4-fluorophenoxy}pyrimidin-4-yl)-2,7-diazaspiro[3.5]nonan-7-yl]methyl}oxan-3-yl]sulfamoyl}(2,2,2-trifluoroethyl)amine] | < 100
15 | C[C@@H]1COC[C@@H](C)N1C(=O)c1cc(F)ccc1Oc1cncnc1N1CC2(CCN(C[C@@H]3CC[C@@H](NS(=O)(=O)NCC4CC4)CO3)CC2)C1 [Example 158, (Cyclopropylmethyl)({[(3R,6S)-6-{[2-(5-{2-[(3R,5R)-3,5-dimethylmorpholine-4-carbonyl]-4-fluorophenoxy}pyrimidin-4-yl)-2,7-diazaspiro[3.5]nonan-7-yl]methyl}oxan-3-yl]sulfamoyl})amine] | < 100
16 | C[C@@H]1COC[C@@H](C)N1C(=O)c1cc(F)ccc1Oc1cncnc1N1CC2(CCN(C[C@@H]3CC[C@@H](NS(=O)(=O)NC4CC4)CO3)CC2)C1 [Example 159, N-[(3R,6S)-6-{[2-(5-{2-[(3R,5R)-3,5-Dimethylmorpholine-4-carbonyl]-4-fluorophenoxy}pyrimidin-4-yl)-2,7-diazaspiro[3.5]nonan-7-yl]methyl}oxan-3-yl](cyclopropylamino)sulfonamide] | < 100
17 | C[C@@H]1COC[C@H](C)N1C(=O)c1cc(F)ccc1Oc1cncnc1N1CC2(CCN(C[C@@H]3CC[C@@H](NS(=O)(=O)N(C)C)CO3)CC2)C1 [Example 160, {[(3R,6S)-6-{[2-(5-{2-[(3R,5S)-3,5-Dimethylmorpholine-4-carbonyl]-4-fluorophenoxy}pyrimidin-4-yl)-2,7-diazaspiro[3.5]nonan-7-yl]methyl}oxan-3-yl]sulfamoyl}dimethylamine] | < 100
18 | C[C@@H]1COC[C@H](C)N1C(=O)c1cc(F)ccc1Oc1cncnc1N1CC2(CCN(C[C@@H]3CC[C@@H](NS(=O)(=O)N4CCC4)CO3)CC2)C1 [Example 161, N-((3R,6S)-6-((2-(5-(2-((3R,5S)-3,5-Dimethylmorpholine-4-carbonyl)-4-fluorophenoxy)pyrimidin-4-yl)-2,7-diazaspiro[3.5]nonan-7-yl)methyl)tetrahydro-2H-pyran-3-yl)azetidine-1-sulfonamide] | < 100
19 | C[C@@H]1COC[C@H](C)N1C(=O)c1cc(F)ccc1Oc1cncnc1N1CC2(CCN(C[C@@H]3CC[C@@H](NS(=O)(=O)NCC(F)(F)F)CO3)CC2)C1 [Example 162, {[(3R,6S)-6-{[2-(5-{2-[(3R,5S)-3,5-Dimethylmorpholine-4-carbonyl]-4-fluorophenoxy}pyrimidin-4-yl)-2,7-diazaspiro[3.5]nonan-7-yl]methyl}oxan-3-yl]sulfamoyl}(2,2,2-trifluoroethyl)amine] | < 100
20 | C[C@@H]1COC[C@H](C)N1C(=O)c1cc(F)ccc1Oc1cncnc1N1CC2(CCN(C[C@@H]3CC[C@@H](NS(=O)(=O)NC4CC4)CO3)CC2)C1 [Example 163, N-[(3R,6S)-6-{[2-(5-{2-[(3R,5S)-3,5-Dimethylmorpholine-4-carbonyl]-4-fluorophenoxy}pyrimidin-4-yl)-2,7-diazaspiro[3.5]nonan-7-yl]methyl}oxan-3-yl](cyclopropylamino)sulfonamide] | < 100
21 | CC(C)N(C(=O)c1cc(F)ccc1Oc1cncnc1N1CC2(CCN(C[C@@H]3CC[C@@H](NS(=O)(=O)C4CC4)CO3)CC2)C1)[C@@H]1CCOC1 [Example 164, 2-((4-(7-(((2S,5R)-5-(Cyclopropanesulfonamido)tetrahydro-2H-pyran-2-yl)methyl)-2,7-diazaspiro[3.5]nonan-2-yl)pyrimidin-5-yl)oxy)-5-fluoro-N-isopropyl-N-((R)-tetrahydrofuran-3-yl)benzamide] | < 100

From patent US11919901B2 (Syndax Pharmaceuticals, Inc., priority 2021, dated 2024)
